The test system of assay [1] is inducible nitric oxide synthase (INOS). The experiment in a line: Inducible nitric oxide synthase induction in rat aorta smooth muscle cells (cGMP RIA). In kind it is cell-based. The conditions noted are these: RASMC; 0.1 or 1 μM EX-2 before LPS, IL-1β or TNF-α (not specified which). As to the method:
A. Inducible Nitric Oxide Synthase (INOS): Rat aorta smooth muscle cells (RASMC) were isolated from male rats (325-350 g) using the previously published procedures of Gelsterfer et al., Circ. Res. 62:749-756 (1988), which is incorporated herein by reference. Cells were positively identified as smooth muscle cells by indirect immunofluorescent staining for anti-α-actin, using a mouse anti-α-actin antibody and anti-mouse IgG FITC conjugate. Cells were grown in T-75 tissue culture flasks (Corning Delbelco's Glass, Inc.; Corning, N.Y.) in 50% F12 and 50% Delbelco's Modified Eagle Medium (DMEM) supplemented with 10% bovine serum, 0.2 g/l L-glutamine, penicillin (100 U/ml) and streptomycin (0.1 mg/ml).
Cells between passages 1-5 were pretreated with one of the following: vehicle, LPS (1 μg/ml), IL-1β (10 U/ml), or TNF-α (100 U/ml) for 6 hr. […] Accumulation of cGMP was determined following exposure to 0.3 mM 3-isobutyl-1-methyl xanthine (IBMX) in the presence or absence of 1 mM L-arginine. […] The HCl extract was analyzed for cGMP by RIA and the NaOH-solubilized cell remnants were used for protein determination.
Male Sprague-Dawley rats were anesthetized with 55 mg/kg pentobarbital IP. […] RASMC were incubated with plasma from control or EX-2-treated animals and the ability of plasma components to inhibit the induction of INOS by LPS or IL-1β was determined as above. […]

The test system of assay [2] is Harlan Sprague-Dawley rats. The experiment in a line: Adult respiratory distress syndrome: LPS-induced PMN count in broncho-alveolar lavage. In kind it is in vivo. The conditions noted are these: 100 μg/kg IP; LPS 5 mg/kg intratracheal; lavage at 6 hr. As to the method:
These experiments were performed using a modification of the methods described by Ulich et al., Am. J. Pathol. 141:61-68 (1992) and by Wheelden et al., Lab. Animals 26:29-37 (1992), each of which is incorporated herein by reference. Male Harlan Sprague-Dawley rats were anesthetized using a mixture of 70 mg/kg ketamine and 6 mg/kg rompun injected IP. A 2-3 cm incision was made in the neck of each anesthetized rat and its trachea was exposed by blunt dissection of the surrounding soft tissue. The rats were suspended on a near vertical slab and intratracheal injections were performed by inserting into the exposed trachea, at a point 1 cm posterior to the larynx, a 25 G×1/2 inch needle attached to a 1 cc syringe.
Each rat received 0.5 ml/kg of saline or 0.5 ml/kg of 10 mg/ml (5 mg/kg) LPS endotoxin via slow intratracheal administration. Immediately following administration of the LPS endotoxin, rats were injected IP with 1 ml/kg of either saline (control) or saline containing various concentrations of EX-2 (treated). The rats were maintained in the elevated position for 1-2 min to facilitate distribution of the LPS and saline into the lung. The incisions were closed and the rats were allowed to recover. […]
neutrophils) in the broncho-alveolar lavage fluid were counted in the EX-2-treated rats and compared with the number in the control rats.

Assay [3] relates to Balb/c mice. The assay is described as follows: Arachidonic acid-induced ear swelling. Conditions: 100 μg/mouse IP 30 min before AA; 60 min after AA. It counts as in vivo. As to the method:
Experiments were performed using female Balb/c mice weighing 18-23 grams. Saline or 100 μg EX-2 or EX-3 was administered IP, 30 min prior to topical application of arachidonic acid (AA). A 10 μl pipet was used to apply 10 μl AA solution (100 mg/ml ethanol; Calbiochem-Novabiochem; San Diego Calif.) to the inner and outer surfaces of the right ear of each mouse. Ten μl ethanol, alone, was applied to the inner and outer surface of the left ear of each mouse.
Ear thickness was measured with a hand-held spring loaded caliper immediately before and 60 min after AA application. Increase in ear thickness was calculated by subtracting the change observed in the control ear from the change observed in AA-treated ear. The value for each group (saline and control) is the average of the swelling observed in the individual mice in each group. The percent reduction of swelling is based on the swelling observed in the saline control group.

Take “Ac-Nle-Gln-His-(D)Phe-Arg-(D)Trp-Gly-NH2 [EX-2]”: the “% Reduction of induced increase in cGMP (pmol/100 mg/5 min), INOS” value in assay [1] stood at 60%. Also, the “Reduction in LPS-induced PMN Count” value in assay [2] stood at 58%. Moreover, the “Reduction in arachidonic acid-induced Ear Swelling” value in assay [3] worked out at 72%.

The values are drawn from patent publication US5786332A, “Cytokine restraining agents and methods of use in pathologies and conditions associated with altered cytokine levels” (Trega Biosciences, Inc., priority 1995, dated 1998).
